ChEMBL document CHEMBL1201862, “PubChem BioAssay data set” (2004)
The source made the active and inactive calls.

Key:
[1] = fluconazole-exposed Candida albicans growth modulators – fluorescence, retest, confirmation (AID 2467); type: functional, cell-based
[2] = cells
[3] = target: T1, Streptokinase A (Streptococcus pyogenes serotype M1, UniProt P10520); experiment: viability-normalized secreted streptokinase activity reduction – plasminogen activation absorbance, OD405, dose response (AID 1914); type: functional, Streptococcus pyogenes M1 GAS;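 also: secreted streptokinase activity via plasminogen activation per viability signal from cell pellet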
T1 sequence (P10520 whole entry): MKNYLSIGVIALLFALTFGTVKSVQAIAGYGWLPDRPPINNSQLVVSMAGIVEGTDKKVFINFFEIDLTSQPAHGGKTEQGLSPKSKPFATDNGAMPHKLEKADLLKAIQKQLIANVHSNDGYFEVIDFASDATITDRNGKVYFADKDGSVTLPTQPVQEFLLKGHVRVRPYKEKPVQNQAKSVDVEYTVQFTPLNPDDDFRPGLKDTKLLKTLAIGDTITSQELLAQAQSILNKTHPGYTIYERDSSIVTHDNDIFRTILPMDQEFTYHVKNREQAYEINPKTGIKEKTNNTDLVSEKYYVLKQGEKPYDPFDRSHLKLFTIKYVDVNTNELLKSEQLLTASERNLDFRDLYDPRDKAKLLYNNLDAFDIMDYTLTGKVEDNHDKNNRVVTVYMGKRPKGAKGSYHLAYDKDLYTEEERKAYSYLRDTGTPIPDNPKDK

[4] = Trypanosoma cruzi growth suppression in host cells – NIH3T3 host cells, beta-gal luminescence, confirmation (AID 2044); type: functional, cell-based;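 also: intracellular parasites grown in NIH/3T3 mouse fibroblasts as host cells; luminescent beta-galactosidase reporter signal from transgenic T. cruzi replicating inside host cells; inhibitors lower the luminescence signal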
[5] = target: Nonstructural protein 1 (Influenza A virus, UniProt Q194T2); type: functional, Influenza A virus (A/California/07/2009(H1N1))
Sequence of Nonstructural protein 1 (Q194T2 whole entry): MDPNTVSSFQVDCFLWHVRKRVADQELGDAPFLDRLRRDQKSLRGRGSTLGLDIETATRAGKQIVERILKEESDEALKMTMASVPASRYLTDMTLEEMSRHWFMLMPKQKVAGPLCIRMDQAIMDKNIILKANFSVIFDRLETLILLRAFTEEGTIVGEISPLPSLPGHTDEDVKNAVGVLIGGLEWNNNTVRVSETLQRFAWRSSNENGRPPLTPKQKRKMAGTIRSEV

[6] = target: T2, Rac GTPase-activating protein 1 (Homo sapiens, UniProt Q9H0H5); experiment: blockers of MgcRacGAP-driven Rac1 GTP hydrolysis – biochemical, ADP Hunter fluorescence, primary and confirmatory, confirmation (AID 624330); type: functional
T2 sequence (Q9H0H5 whole entry): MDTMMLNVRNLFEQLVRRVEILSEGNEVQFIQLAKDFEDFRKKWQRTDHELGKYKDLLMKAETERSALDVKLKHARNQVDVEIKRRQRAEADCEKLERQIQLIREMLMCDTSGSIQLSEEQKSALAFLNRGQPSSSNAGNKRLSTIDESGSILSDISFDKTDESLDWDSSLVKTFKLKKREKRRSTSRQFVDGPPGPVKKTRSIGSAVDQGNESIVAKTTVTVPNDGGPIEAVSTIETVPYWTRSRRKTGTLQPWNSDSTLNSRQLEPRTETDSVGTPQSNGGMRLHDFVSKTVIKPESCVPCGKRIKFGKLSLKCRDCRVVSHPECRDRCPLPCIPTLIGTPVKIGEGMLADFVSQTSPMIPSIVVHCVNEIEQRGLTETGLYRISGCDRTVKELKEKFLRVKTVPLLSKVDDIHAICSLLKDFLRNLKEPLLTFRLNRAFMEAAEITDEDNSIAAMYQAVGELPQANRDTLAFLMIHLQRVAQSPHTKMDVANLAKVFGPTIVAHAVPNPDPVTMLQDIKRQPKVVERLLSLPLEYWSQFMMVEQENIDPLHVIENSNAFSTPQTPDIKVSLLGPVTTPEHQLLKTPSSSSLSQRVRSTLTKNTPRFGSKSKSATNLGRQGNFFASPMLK

[7] = viability loss in HeLa cells – cytotoxicity control for MgcRacGAP inhibitor project, dose response (AID 624300); type: functional
[8] = NIH3T3 cell viability loss – ATP luminescence, mouse fibroblasts, counter-screen, dose response (AID 2010); type: functional, cell-based;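 also: cells exposed to compound for about 90 hours before reading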
[9] = system: Streptococcus; experiment: GAS UMAA2166 growth inhibition – luminescence, BacTiterGlo, counter-screen for streptokinase expression inhibitor project, dose response (AID 1915); type: functional, organism-based;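 also: potency for reduction of bacterial viability or growth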
[10] = target: T3, Leucine aminopeptidase (Plasmodium falciparum 3D7, UniProt Q8IL11); experiment: P. falciparum M17LAP inhibitors, primary screen, biochemical, fluorogenic H-Leu-NHMec substrate, 1536-well (AID 1619); type: functional
T3 sequence (Q8IL11 whole entry): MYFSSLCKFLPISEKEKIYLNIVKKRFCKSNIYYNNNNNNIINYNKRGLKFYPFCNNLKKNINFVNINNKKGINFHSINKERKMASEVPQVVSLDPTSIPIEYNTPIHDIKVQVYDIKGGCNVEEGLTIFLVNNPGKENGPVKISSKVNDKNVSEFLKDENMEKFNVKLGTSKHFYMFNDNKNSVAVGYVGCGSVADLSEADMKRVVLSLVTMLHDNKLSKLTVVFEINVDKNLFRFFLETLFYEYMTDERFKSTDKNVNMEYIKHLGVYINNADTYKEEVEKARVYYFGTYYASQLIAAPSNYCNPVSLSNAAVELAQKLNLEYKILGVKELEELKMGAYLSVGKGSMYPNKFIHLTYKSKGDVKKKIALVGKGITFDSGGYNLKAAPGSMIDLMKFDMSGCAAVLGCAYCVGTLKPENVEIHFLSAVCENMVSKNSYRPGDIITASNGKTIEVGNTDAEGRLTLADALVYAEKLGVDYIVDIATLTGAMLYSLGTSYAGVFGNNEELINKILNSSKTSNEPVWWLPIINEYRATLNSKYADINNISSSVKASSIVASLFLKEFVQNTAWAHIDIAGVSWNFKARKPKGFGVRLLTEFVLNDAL

[11] = system: Streptococcus sp. 'group A'; experiment: Streptococcus pyogenes SK(-)GAS viability under kanamycin – luminescence, BacTiterGlo, confirmation, counter-screen for streptokinase expression inhibitor project, dose response (AID 1900); type: functional, organism-based
[12] = target: Photoreceptor-specific nuclear receptor (Homo sapiens, UniProt Q9Y5X4); type: functional, cell-based;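 also: CHO-S cells with Gal4-NCOR and VP16-NR2E3 two-hybrid luciferase reporter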
Sequence of Photoreceptor-specific nuclear receptor (Q9Y5X4 whole entry, the tested form may be a part): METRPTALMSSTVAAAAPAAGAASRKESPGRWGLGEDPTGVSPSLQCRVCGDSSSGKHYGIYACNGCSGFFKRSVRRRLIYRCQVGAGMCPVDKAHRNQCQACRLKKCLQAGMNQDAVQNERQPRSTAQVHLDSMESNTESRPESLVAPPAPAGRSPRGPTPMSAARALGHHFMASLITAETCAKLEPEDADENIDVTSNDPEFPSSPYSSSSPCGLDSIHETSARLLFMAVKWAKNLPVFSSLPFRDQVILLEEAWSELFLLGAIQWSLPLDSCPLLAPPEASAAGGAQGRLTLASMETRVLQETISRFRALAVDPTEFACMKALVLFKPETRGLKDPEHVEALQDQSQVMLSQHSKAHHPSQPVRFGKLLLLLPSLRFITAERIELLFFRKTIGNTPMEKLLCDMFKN

[13] = NIH-3T3 fibroblast cytotoxicity, dose response, cytotoxicity control, cell-based, fluorescence, Alamar Blue, secondary assay (AID 2327); type: functional;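 also: NIH-3T3 mouse fibroblasts cultured with fluconazole at 8 µg/mL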
[14] = target: Tyrosine-protein phosphatase non-receptor type 5 (Homo sapiens, UniProt P54829); experiment: PTPN5 enzyme inhibition – biochemical, fluorescence intensity, uHTS hits, confirmation (AID 602372); type: functional; settings: read-out: IC50_Mean
Sequence of Tyrosine-protein phosphatase non-receptor type 5 (P54829 whole entry): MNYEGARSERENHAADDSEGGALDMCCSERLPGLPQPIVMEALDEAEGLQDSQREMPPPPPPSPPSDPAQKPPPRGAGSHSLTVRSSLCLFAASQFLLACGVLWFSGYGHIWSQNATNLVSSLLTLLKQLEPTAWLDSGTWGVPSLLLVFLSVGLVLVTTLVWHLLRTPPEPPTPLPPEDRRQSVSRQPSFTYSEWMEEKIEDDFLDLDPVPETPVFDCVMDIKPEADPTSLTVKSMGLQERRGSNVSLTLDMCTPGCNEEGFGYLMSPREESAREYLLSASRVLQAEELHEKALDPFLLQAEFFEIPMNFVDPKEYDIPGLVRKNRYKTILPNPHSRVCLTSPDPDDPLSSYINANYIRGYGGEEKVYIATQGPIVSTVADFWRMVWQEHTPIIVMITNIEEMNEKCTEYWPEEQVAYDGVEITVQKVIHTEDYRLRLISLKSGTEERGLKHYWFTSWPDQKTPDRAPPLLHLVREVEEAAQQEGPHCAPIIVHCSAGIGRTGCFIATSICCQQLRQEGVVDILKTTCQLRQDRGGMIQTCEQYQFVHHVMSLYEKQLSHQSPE

[15] = target: Dual specificity protein phosphatase 3 (Homo sapiens, UniProt P51452); experiment: VHR phosphatase inhibition, dose response, selectivity assay for STEP inhibitor project, biochemical (AID 602374); type: functional; settings: read-out: IC50_Mean
Sequence of Dual specificity protein phosphatase 3 (P51452 whole entry, the tested form may be a part): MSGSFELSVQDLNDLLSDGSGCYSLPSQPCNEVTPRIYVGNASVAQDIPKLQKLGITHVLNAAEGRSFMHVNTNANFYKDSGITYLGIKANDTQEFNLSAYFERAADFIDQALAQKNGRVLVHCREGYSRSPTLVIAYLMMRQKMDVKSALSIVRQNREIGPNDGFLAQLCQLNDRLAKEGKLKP

[16] = target: Arf-GAP with SH3 domain, ANK repeat and PH domain-containing protein 1 (Homo sapiens, UniProt Q9ULH1); type: functional;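 also: biochemical fluorescence polarization dose–response screen measuring inhibition of ASAP1; ASAP1 GAP domain stimulating GTP hydrolysis by truncated human ARF1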
Sequence of Arf-GAP with SH3 domain, ANK repeat and PH domain-containing protein 1 (Q9ULH1 whole entry, the tested form may be a part): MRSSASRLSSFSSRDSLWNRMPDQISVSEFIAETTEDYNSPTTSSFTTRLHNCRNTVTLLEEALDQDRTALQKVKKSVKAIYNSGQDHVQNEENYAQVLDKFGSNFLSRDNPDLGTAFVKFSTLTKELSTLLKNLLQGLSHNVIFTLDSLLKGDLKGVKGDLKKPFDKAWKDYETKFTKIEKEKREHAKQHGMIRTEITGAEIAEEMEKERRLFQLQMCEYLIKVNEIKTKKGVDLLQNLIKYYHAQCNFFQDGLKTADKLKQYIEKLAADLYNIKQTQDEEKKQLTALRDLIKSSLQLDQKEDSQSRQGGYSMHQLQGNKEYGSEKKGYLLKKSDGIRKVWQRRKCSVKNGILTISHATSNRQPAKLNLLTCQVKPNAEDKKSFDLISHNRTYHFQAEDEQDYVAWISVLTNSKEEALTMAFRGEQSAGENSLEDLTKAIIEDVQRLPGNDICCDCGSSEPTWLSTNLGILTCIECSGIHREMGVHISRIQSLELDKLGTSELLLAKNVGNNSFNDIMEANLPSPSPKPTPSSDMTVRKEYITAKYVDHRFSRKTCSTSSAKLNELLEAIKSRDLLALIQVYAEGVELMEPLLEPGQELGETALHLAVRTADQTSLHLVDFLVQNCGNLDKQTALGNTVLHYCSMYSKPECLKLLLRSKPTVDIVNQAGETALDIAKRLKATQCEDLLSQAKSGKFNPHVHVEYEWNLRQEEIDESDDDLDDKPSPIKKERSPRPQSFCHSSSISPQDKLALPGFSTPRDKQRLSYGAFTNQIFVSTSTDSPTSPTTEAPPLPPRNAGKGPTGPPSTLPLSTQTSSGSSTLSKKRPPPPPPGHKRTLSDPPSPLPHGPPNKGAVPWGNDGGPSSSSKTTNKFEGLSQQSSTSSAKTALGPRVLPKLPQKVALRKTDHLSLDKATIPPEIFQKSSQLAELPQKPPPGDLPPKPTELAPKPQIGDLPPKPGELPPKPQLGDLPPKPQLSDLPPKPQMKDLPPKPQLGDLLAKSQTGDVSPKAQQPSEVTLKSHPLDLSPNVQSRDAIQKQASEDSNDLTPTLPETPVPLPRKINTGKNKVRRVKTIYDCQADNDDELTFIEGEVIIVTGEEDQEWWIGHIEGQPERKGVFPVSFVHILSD

[17] = target: Tyrosine-protein phosphatase non-receptor type 11 (Homo sapiens, UniProt Q06124); experiment: PTPN11 enzyme inhibitors – biochemical, selectivity assay for STEP inhibitor project, dose response (AID 602367); type: functional; settings: read-out: IC50_Mean
Sequence of Tyrosine-protein phosphatase non-receptor type 11 (Q06124 whole entry): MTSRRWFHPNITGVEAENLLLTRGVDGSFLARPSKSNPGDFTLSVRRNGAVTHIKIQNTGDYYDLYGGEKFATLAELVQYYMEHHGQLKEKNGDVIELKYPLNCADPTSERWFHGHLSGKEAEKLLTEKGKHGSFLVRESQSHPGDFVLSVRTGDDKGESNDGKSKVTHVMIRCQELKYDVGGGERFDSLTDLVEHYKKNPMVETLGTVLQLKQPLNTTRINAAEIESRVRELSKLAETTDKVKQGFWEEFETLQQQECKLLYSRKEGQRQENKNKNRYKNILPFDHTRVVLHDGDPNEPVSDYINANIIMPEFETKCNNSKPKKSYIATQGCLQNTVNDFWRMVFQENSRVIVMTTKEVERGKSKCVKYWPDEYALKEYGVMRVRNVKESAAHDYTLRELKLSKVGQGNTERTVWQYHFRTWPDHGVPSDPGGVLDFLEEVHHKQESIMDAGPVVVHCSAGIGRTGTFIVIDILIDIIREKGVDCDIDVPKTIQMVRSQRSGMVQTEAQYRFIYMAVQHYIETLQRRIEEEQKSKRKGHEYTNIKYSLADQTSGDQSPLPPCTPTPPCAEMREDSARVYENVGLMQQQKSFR

[18] = target: T4, Sentrin-specific protease 8 (Homo sapiens, UniProt Q96LD8); type: functional
T4 sequence (Q96LD8 whole entry): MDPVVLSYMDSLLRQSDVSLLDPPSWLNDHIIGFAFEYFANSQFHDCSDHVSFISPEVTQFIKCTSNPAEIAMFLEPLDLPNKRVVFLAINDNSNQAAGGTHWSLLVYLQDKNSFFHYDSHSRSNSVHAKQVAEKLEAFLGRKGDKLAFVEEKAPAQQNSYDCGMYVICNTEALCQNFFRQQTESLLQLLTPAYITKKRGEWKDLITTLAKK

[19] = target: T5, Protein RecA (Mycobacterium tuberculosis, UniProt P9WHJ3); experiment: Fluorescence Cell-Free Homogeneous Dose Retest to Identify Inhibitors of RecA-Intein Splicing Activity. [Related pubchem assays (depositor defined):AID2097, AID2223, AID489010, AID492950]; type: functional
T5 sequence (P9WHJ3 whole entry): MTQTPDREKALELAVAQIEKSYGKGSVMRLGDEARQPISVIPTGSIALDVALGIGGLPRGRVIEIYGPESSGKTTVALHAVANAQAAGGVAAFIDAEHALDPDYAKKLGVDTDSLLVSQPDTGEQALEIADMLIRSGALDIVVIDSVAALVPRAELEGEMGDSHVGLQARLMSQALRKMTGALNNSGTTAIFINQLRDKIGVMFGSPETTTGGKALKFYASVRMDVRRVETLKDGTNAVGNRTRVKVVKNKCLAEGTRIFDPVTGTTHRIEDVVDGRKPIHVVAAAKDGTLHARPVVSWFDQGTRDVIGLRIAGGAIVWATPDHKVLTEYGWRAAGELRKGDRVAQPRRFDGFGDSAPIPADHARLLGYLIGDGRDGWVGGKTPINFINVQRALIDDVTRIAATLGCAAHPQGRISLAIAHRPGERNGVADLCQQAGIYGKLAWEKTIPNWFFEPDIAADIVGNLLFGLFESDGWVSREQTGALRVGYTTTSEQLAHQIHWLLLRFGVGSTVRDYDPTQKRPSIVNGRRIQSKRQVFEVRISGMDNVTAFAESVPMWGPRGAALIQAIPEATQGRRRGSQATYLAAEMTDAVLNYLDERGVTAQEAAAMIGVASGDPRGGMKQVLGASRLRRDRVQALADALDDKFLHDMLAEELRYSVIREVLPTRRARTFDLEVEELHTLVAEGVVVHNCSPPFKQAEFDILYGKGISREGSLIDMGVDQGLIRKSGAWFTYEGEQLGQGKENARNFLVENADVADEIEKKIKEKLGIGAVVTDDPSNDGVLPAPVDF

[20] = target: T4, Sentrin-specific protease 8; type: functional; remark: listed apart in the source
[21] = target: T6, Replicative DNA helicase DnaB (Mycobacterium tuberculosis, UniProt P9WMR3); experiment: DnaB intein splicing inhibitors, dose response, biochemical, cell-free fluorescence (AID 449749); type: functional
T6 sequence (P9WMR3 whole entry): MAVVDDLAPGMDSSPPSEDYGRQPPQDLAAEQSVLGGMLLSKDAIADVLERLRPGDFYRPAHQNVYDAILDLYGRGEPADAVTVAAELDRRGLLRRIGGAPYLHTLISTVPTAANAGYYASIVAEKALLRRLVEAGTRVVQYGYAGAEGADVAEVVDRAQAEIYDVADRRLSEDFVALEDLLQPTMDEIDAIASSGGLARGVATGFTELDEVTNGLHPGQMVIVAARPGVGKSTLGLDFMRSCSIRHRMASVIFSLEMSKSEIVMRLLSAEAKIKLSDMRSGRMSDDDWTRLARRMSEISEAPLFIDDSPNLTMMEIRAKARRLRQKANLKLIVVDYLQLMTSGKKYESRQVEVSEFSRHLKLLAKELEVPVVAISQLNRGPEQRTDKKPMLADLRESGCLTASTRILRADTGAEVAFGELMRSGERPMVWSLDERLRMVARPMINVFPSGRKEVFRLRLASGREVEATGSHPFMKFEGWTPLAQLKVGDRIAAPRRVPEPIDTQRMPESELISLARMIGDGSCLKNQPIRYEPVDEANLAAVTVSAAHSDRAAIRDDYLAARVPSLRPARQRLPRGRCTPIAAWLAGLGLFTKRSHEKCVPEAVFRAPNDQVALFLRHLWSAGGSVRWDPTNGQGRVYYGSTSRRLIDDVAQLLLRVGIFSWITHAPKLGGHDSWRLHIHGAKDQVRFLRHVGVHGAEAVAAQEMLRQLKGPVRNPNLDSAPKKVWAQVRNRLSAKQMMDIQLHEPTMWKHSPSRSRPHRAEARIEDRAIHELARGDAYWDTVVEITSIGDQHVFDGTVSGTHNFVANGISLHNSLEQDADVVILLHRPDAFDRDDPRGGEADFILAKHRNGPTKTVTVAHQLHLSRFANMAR

CN(C)c1ccc(/C=C/c2ccc3ccccc3[n+]2C)cc1
EC50 [1]: 0.035 µM (active) | EC50 [2]: < 0.004 µM (active) | EC50 [3]: > 150 µM (not active) | EC50 [4]: < 0.1 µM (active) | IC50 [5]: 14.3 µM (active) | IC50 [6]: 46.8 µM (active) | CC50 [7]: 28.9 µM (active) | EC50 [8]: 18.5 µM (active) | EC50 [9]: 11.5 µM (active) | IC50 [10]: 88.4 µM (active) | EC50 [11]: 6.7 µM (active) | IC50 [12]: 19.2 µM (inactive) | EC50 [13]: > 150 µM (inactive)

NC(=NOC(=O)c1cccc2ccccc12)c1cccc([N+](=O)[O-])c1
IC50 [14]: 29.7 µM (inactive) | IC50 [15]: 5.16 µM (active) | IC50 [16]: 20.9 µM (inactive) | IC50 [17]: 5.9 µM (active)

O=C1C2=[N+]([O-])C3CCCCC3[N+]([O-])=C2c2ccccc21 (stereo unspecified)
IC50 [18]: 2.98 µM (active) | EC50 [19]: 9.54 µM (active) | IC50 [20]: 9.46 µM (active) | AC50 [21]: 6.38 µM (active)
